# According to US7122209B2, “Oral compositions for the treatment of non-diabetic obese mammals, including humans” (Quimica Farmaceutica Bayer S.A., priority 2001, dated 2006):
# Assays:
# cafeteria-fed rats = assay: Diet-induced obesity (cafeteria diet) rat model, oral tungstate in drinking water; format: in vivo, male Wistar rats
# Excerpt: The so-called “cafeteria diet” consists of an offering of freshly and highly palatable supermarket food items with high fat and/or carbohydrate content in addition to standard laboratory chow. […] Moreover, it is also known that ingestion of a cafeteria diet results in increased thermogenesis and fat deposition.
# (§1) For the present experiments, male Wistar rats (IFFA CREDO), weighing 0.20–0.22 kg, were caged individually in a 12:12-h light-dark cycle, temperature and humidity controlled environment. After an adaptation period of 1 week the animals were divided into two dietary groups. One group was fed standard chow diet (2.7% in fat content, type AO4 from Panlab, Barcelona, Spain) and the second group was fed a cafeteria diet (30% in fat content). The cafeteria diet consisted of a daily offering of cookies, liver pate, bacon, standard chow and whole milk supplemented with 333 g/l sucrose and 10 g/l of a mineral and vitamin complex (Gevral, Cynamid Ibérica, Madrid, Spain). All the food items were weighed and presented in excess.
# An initial set of forty rats were divided into two sets of dietary conditions, control (standard diet, n=15) and cafeteria (cafeteria diet, n=25), and fed for 30 days. In order to evaluate the effects of tungstate treatment, animals from each condition were divided into two new subsets: tungstate treated and tungstate untreated groups (simply treated and untreated in the following). The treated rats were given a solution of 2 mg/ml of sodium tungstate dihydrate in distilled water.
# The treatment was carried out for 32 days. Blood glucose measurements as well as blood samples were collected before (days 0–30), during (days 31–62) and at the end of the experimental period. Selective food items consumption (corrected by the amount of water lost for each) and the weight of all animals were recorded daily.
# At the end of the treatment period, rats from treated (n=8) and untreated (n=7) cafeteria-fed groups and rats from both treated (n=3) and untreated (n=3) standard-fed groups were killed and several tissues (gastrocnemius muscle, intercapular brown adipose tissue (iBAT), epididimal white adipose tissue (WAT), liver, pancreas and brain) were excised, weighed, cleaned and rapidly frozen in liquid nitrogen or fixed in formol 10% for future studies.
# Remaining rats (n=19) were withdrawn the tungstate treatment, but maintained the dietary conditions, in order to start a 35 day recovery period. After this time animals were killed and processed as above. Selective food items consumption (corrected by the amount of water lost for each) and the weight of all animals were recorded daily.
# The data obtained in this study allowed to establish an obesity criteria. […]
# [1] = Solubility in water (description); format: physicochemical
# standard-fed rats = assay: Standard-fed rats, oral tungstate in drinking water; format: in vivo, male Wistar rats
# Excerpt: as §1
# An initial set of forty rats were divided into two sets of dietary conditions, control (standard diet, n=15) and cafeteria (cafeteria diet, n=25), and fed for 30 days. […]
# The treatment was carried out for 32 days. […] Selective food items consumption (corrected by the amount of water lost for each) and the weight of all animals were recorded daily. […]
# Remaining rats (n=19) were withdrawn the tungstate treatment, but maintained the dietary conditions, in order to start a 35 day recovery period. […] Selective food items consumption (corrected by the amount of water lost for each) and the weight of all animals were recorded daily.
smiles,measurement,setting,value
O.O.[Na+].[Na+].[O]=[W](=[O])([O-])[O-] [sodium tungstate dihydrate],food intake,"cafeteria-fed rats; cafeteria diet rat model, during weight loss",without decrease of food intake
same,body weight increase,"cafeteria-fed rats; cafeteria-fed rats, 2 mg/ml sodium tungstate dihydrate in distilled water, treatment period days 31-62, vs untreated",significantly diminished body weight increase
same,body weight increase difference between treated and untreated rats at day 97,"cafeteria-fed rats; cafeteria-fed rats, end of 35 day recovery period",quite important
same,body weight after withdrawal of treatment (reversibility),"cafeteria-fed rats; cafeteria-fed rats, recovery period days 63-97",started to gain body weight quickly
same,solubility in water,[1],easily dissolved in water
same,body weight increase,"standard-fed rats; 2 mg/ml sodium tungstate dihydrate in distilled water, treatment period days 31-62, vs untreated",significantly diminished body weight increase
same,body weight after withdrawal of treatment (reversibility),standard-fed rats; recovery period days 63-97,started to gain body weight quickly
